According to PubChem BioAssay (NCI):
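Dose response: 5 concentrations. Exposure: 48 h. Format: 96-well plates. Endpoint: linear interpolation; highest concentration if not reached. TGI: total growth inhibition.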

Key:
Assay in all cases: NCI tumour cell line growth inhibition, 48 h
HOP-18 NSCLC = system: HOP-18 NSCLC
LXFL 529 NSCLC = system: LXFL 529 NSCLC
DLD-1 colon = system: DLD-1 colon
DMS 114 small cell lung = system: DMS 114 small cell lung
SNB-78 CNS = system: SNB-78 CNS
M19-MEL melanoma = system: M19-MEL melanoma
XF 498 CNS = system: XF 498 CNS
P388/ADR leukemia = system: P388/ADR leukemia
P388 leukemia = system: P388 leukemia
SN12K1 renal = system: SN12K1 renal

| SMILES | TGI (HOP-18 NSCLC) [µM] | TGI (LXFL 529 NSCLC) [µM] | TGI (DLD-1 colon) [µM] | TGI (DMS 114 small cell lung) [µM] | TGI (SNB-78 CNS) [µM] | TGI (M19-MEL melanoma) [µM] | TGI (XF 498 CNS) [µM] | TGI (P388/ADR leukemia) [µM] | TGI (P388 leukemia) [µM] | TGI (SN12K1 renal) [µM] |
| --- | --- | --- | --- | --- | --- | --- | --- | --- | --- | --- |
| S=c1nc[nH]c2c1ncn2C1CCCO1 (stereo not drawn) | > 100 | > 100 | > 100 | > 100 | – | – | – | – | – | – |
| C(=C/c1nc2ccccc2o1)/c1ccc2c(c1)OCO2 | 60.8 | – | > 100 | > 100 | 90.6 | > 100 | 48.8 | > 43.7 | > 35.8 | 42 |
